Target: T1, G1-ATPase (dimeric F1-like ATPase, twin motor; type 2 ATPase) ([Mycoplasma] mobile, UniProt Q6KIC3+Q6KIC4)
T1 construct: gene atpA; native twin motor isolated from M. mobile cells; two alpha3beta3gamma units with GliD, GliE and PGK; PGK CTD only partly modelled; strain mutation lies in gli521, outside the complex; with F1-like ATPase gamma subunit (G1-gamma); GliD (bridge subunit of G1-ATPase); GliE (G1-ATPase subunit, 112 amino acids); Phosphoglycerate kinase
Experiment: cryo-EM structure of the complex ([…] Å; local […] Å)
Assay type: binding
Conditions: Mg2+, endogenous nucleotide, isolated without added nucleotide, PBS pH 7.3, 1 mM MgCl2

SMILES | cryo-EM structure of the complex (3.2 Å; local 3.1 Å) (catalytic site of alphaHO-betaHO, together with Pi) | cryo-EM structure of the complex (3.2 Å; local 3.1 Å) (catalytic site of alphaC-betaC and the three noncatalytic beta-alpha interfaces)
Nc1ncnc2c1ncn2[C@@H]1O[C@H](COP(=O)(O)OP(=O)(O)O)[C@@H](O)[C@H]1O [Mg-ADP] | αCβC and αHOβHO contained Mg-ATP and Mg-ADP + Pi, respectively | 
Nc1ncnc2c1ncn2[C@@H]1O[C@H](COP(=O)(O)OP(=O)(O)OP(=O)(O)O)[C@@H](O)[C@H]1O [Mg-ATP] |  | Mg-ATP was observed at the remaining three interfaces, hereafter referred to as the β-α interfaces

— publication PMC11864180, “Dimeric assembly of F1-like ATPase for the gliding motility of Mycoplasma” (Science Advances, 2025)
